Consider 56 compounds from patent US12281102B2, “Inhibitors of APOL1 and methods of using same” (Vertex Pharmaceuticals Incorporated, priority 2020, dated 2025).

Each structure is given as a SMILES string. Where only a bound is given, the exact number is not on record here.

The target in the test is T1, G1 APOL1 (Homo sapiens, UniProt O14791, I384M/S342G).
T1 construct: expressed in transfected cells
T1 sequence (O14791 28-398 S342G/I384M): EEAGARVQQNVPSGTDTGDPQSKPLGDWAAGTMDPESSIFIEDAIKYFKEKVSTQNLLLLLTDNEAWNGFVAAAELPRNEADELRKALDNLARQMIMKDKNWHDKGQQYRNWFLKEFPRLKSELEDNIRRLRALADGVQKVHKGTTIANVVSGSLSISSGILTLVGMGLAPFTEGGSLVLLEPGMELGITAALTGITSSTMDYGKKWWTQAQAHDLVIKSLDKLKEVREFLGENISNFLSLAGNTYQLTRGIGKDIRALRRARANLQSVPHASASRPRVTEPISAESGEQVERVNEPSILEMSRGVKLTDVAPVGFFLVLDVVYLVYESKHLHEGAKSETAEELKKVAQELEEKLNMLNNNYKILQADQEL
Nature of the test: Acute APOL1 Thallium Assay with inducible stable clones of HEK 293 cells. Format: cell-based. The note with it: HEK 293 T-Rex inducible stable clone expressing G1 APOL1; read-out: Thallium Assay (IC50). The method, boiled down:
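APOL1 pore function was measured as thallium influx, detected by a Tl+-sensitive fluorescent dye loaded as AM ester, on a FLIPR Tetra after Tl+ addition. Cells were HEK T-Rex G1 APOL1 clone DC3.25, 26,000 per well, induced with tetracycline at plating in Opti-MEM assay medium.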
As a reminder, the IC50 is the concentration at which inhibition is half-maximal. For `Cc1[nH]cnc1CCNS(=O)(=O)NC[C@H]1C[C@H](c2c(-c3ccc(F)cc3)[nH]c3c(F)cc(F)cc32)C1` [Compound 334], the 50% inhibitory concentration (IC50) was more than 1 µM. Then `O=C1CCCN1CCCNS(=O)(=O)NC[C@H]1C[C@H](c2c(-c3ccc(F)cc3)[nH]c3c(F)cc(F)cc32)C1` [Compound 335], with more than 1 µM; and `CN1CC(NS(=O)(=O)NC[C@H]2C[C@H](c3c(-c4ccc(F)cc4)[nH]c4c(F)cc(F)cc43)C2)CC1=O` (some centres unmarked) [Compound 336], with more than 1 µM; and `CNC(=O)c1noc(CNS(=O)(=O)NC[C@H]2C[C@H](c3c(-c4ccc(F)cc4)[nH]c4c(F)cc(F)cc43)C2)n1` [Compound 337], with 0.25 to 1 µM.

`C[C@@H](CO)NS(=O)(=O)NC[C@H]1C[C@H](c2c(-c3ccc(F)cc3)[nH]c3c(F)cc(F)cc32)C1` [Compound 338]: the IC50 lay within 0.25 to 1 µM.

`O=S(=O)(NCCO)NC[C@H]1C[C@H](c2c(-c3ccc(F)cc3)[nH]c3c(F)cc(F)cc32)C1` [Compound 339]: the IC50 was less than 0.25 µM. For `O=C1CCC(CNS(=O)(=O)NC[C@H]2C[C@H](c3c(-c4ccc(F)cc4)[nH]c4c(F)cc(F)cc43)C2)N1` (some centres unmarked) [Compound 340] the value was more than 1 µM. Then `NC(=O)CNS(=O)(=O)NC[C@H]1C[C@H](c2c(-c3ccc(F)cc3)[nH]c3c(F)cc(F)cc32)C1` [Compound 341], with 0.25 to 1 µM; and `O=S(=O)(NC[C@H]1C[C@H](c2c(-c3ccc(F)cc3)[nH]c3c(F)cc(F)cc32)C1)NC1(CO)CC1` [Compound 343], with 0.25 to 1 µM; and `O=S(=O)(NC[C@H]1C[C@H](c2c(-c3ccc(F)cc3)[nH]c3c(F)cc(F)cc32)C1)N[C@H]1C[C@H](O)C1` [Compound 344], with more than 1 µM. Then `O=C1NCCC1CNS(=O)(=O)NC[C@H]1C[C@H](c2c(-c3ccc(F)cc3)[nH]c3c(F)cc(F)cc32)C1` (some centres unmarked) [Compound 345], with more than 1 µM. For the compound `O=S(=O)(NC[C@H]1C[C@H](c2c(-c3ccc(F)cc3)[nH]c3c(F)cc(F)cc32)C1)NC(CO)CF` (some centres unmarked) [Compound 346], the IC50 was in the range of 0.25 to 1 µM.

As for `O=S(=O)(NC[C@H]1C[C@H](c2c(-c3ccc(F)cc3)[nH]c3c(F)cc(F)cc32)C1)N[C@@H](CO)C(F)F` [Compound 347], the IC50 was more than 1 µM. Then `O=S(=O)(NC[C@H]1C[C@H](c2c(-c3ccc(F)cc3)[nH]c3c(F)cc(F)cc32)C1)N[C@@H]1CCC[C@H]1O` [Compound 348], with more than 1 µM; and `NC(=O)C1(NS(=O)(=O)NC[C@H]2C[C@H](c3c(-c4ccc(F)cc4)[nH]c4c(F)cc(F)cc43)C2)CC1` [Compound 349], with more than 1 µM. For `O=S(=O)(NC[C@H](O)CO)NC[C@H]1C[C@H](c2c(-c3ccc(F)cc3)[nH]c3c(F)cc(F)cc32)C1` [Compound 350] the value was more than 1 µM. Then `C[C@@H](O)CNS(=O)(=O)NC[C@H]1C[C@H](c2c(-c3ccc(F)cc3)[nH]c3c(F)cc(F)cc32)C1` [Compound 351], with more than 1 µM; and `O=S(=O)(NC[C@@H](O)CO)NC[C@H]1C[C@H](c2c(-c3ccc(F)cc3)[nH]c3c(F)cc(F)cc32)C1` [Compound 352], with more than 1 µM; and `NC(=O)[C@H](CO)NS(=O)(=O)NC[C@H]1C[C@H](c2c(-c3ccc(F)cc3)[nH]c3c(F)cc(F)cc32)C1` [Compound 353], with more than 1 µM. As for `CNS(=O)(=O)NC[C@H]1C[C@H](c2c(-c3ccc(F)cc3)[nH]c3c(F)cc(F)cc32)C1` [Compound 354], the IC50 is more than 1 µM.

In the case of `O=S(=O)(NC[C@H]1C[C@H](c2c(-c3ccc(F)cc3)[nH]c3c(F)cc(F)cc32)C1)NC1(CO)CCC1` [Compound 355], the IC50 lay within 0.25 to 1 µM.

On to `CC(O)CCNS(=O)(=O)NC[C@H]1C[C@H](c2c(-c3ccc(F)cc3)[nH]c3c(F)cc(F)cc32)C1` (some centres unmarked) [Compound 356], for which the IC50 was 0.25 to 1 µM. Regarding `O=S(=O)(NC[C@H]1C[C@H](c2c(-c3ccc(F)cc3)[nH]c3c(F)cc(F)cc32)C1)N[C@@H]1CCC[C@@H]1O` [Compound 357], the IC50 is more than 1 µM.

Consider `O=S(=O)(NC[C@H]1C[C@H](c2c(-c3ccc(F)cc3)[nH]c3c(F)cc(F)cc32)C1)NC(CO)C(F)(F)F` (some centres unmarked) [Compound 358], for which the IC50 is more than 1 µM. Then `O=S(=O)(NCCc1c[nH]cn1)NC[C@H]1C[C@H](c2c(-c3ccc(F)cc3)[nH]c3c(F)cc(F)cc32)C1` [Compound 359], with more than 1 µM; and `C[C@H](O)[C@H](CO)NS(=O)(=O)NC[C@H]1C[C@H](c2c(-c3ccc(F)cc3)[nH]c3c(F)cc(F)cc32)C1` [Compound 360], with more than 1 µM.

As for `CN(CC(O)CO)S(=O)(=O)NC[C@H]1C[C@H](c2c(-c3ccc(F)cc3)[nH]c3c(F)cc(F)cc32)C1` (some centres unmarked) [Compound 361], the IC50 is more than 1 µM. As to `C[C@@H](O)[C@@H](CO)NS(=O)(=O)NC[C@H]1C[C@H](c2c(-c3ccc(F)cc3)[nH]c3c(F)cc(F)cc32)C1` [Compound 363], the IC50 is more than 1 µM. Then `CC(CO)(CO)NS(=O)(=O)NC[C@H]1C[C@H](c2c(-c3ccc(F)cc3)[nH]c3c(F)cc(F)cc32)C1` [Compound 365], with more than 1 µM; and `O=S(=O)(NCCCn1ccnc1)NC[C@H]1C[C@H](c2c(-c3ccc(F)cc3)[nH]c3c(F)cc(F)cc32)C1` [Compound 366], with more than 1 µM. Take `Cn1cnc(CNS(=O)(=O)NC[C@H]2C[C@H](c3c(-c4ccc(F)cc4)[nH]c4c(F)cc(F)cc43)C2)c1` [Compound 367]: the IC50 is more than 1 µM. For the compound `O=C1CC(CNS(=O)(=O)NC[C@H]2C[C@H](c3c(-c4ccc(F)cc4)[nH]c4c(F)cc(F)cc43)C2)CN1` (some centres unmarked) [Compound 368], the IC50 was 0.25 to 1 µM. In the case of `O=S(=O)(NCCc1cn[nH]c1)NC[C@H]1C[C@H](c2c(-c3ccc(F)cc3)[nH]c3c(F)cc(F)cc32)C1` [Compound 369], the IC50 is 0.25 to 1 µM. For the compound `CN(C)S(=O)(=O)NC[C@H]1C[C@H](c2c(-c3ccc(F)cc3)[nH]c3c(F)cc(F)cc32)C1` [Compound 370, 3-[3-[(dimethylsulfamoylamino)methyl]cyclobutyl]-5,7-difluoro-2-(4-fluorophenyl)-1H-indole], the IC50 was more than 1 µM. Then `CC(=O)NS(=O)(=O)NC[C@H]1C[C@H](c2c(-c3ccc(F)cc3)[nH]c3c(F)cc(F)cc32)C1` [Compound 371], with 0.25 to 1 µM; and `NS(=O)(=O)NC[C@H]1C[C@H](c2c(-c3ccc(F)cc3)[nH]c3c(F)cc(F)cc32)C1` [Compound 372], with less than 0.25 µM; and `O=C1NCCN1C[C@H]1C[C@H](c2c(-c3ccc(F)cc3)[nH]c3c(F)cc(F)cc32)C1` [Compound 373, 1-(((1r,3r)-3-(5,7-difluoro-2-(4-fluorophenyl)-1H-indol-3-yl)cyclobutyl)methyl)imidazolidin-2-one], with less than 0.25 µM. `OCC(CO)NCC1CC(c2c(-c3ccc(F)cc3)[nH]c3c(F)cc(F)cc23)C1` (centres unmarked) [Compound 376]: the IC50 is 0.25 to 1 µM.

Regarding `OC1CC(NCC2CC(c3c(-c4ccc(F)cc4)[nH]c4c(F)cc(F)cc34)C2)C1` (centres unmarked) [Compound 377], the IC50 was in the range of 0.25 to 1 µM. For `Fc1ccc(-c2[nH]c3c(F)cc(F)cc3c2C2CC(CNCC(F)F)C2)cc1` (centres unmarked) [Compound 379] the value was 0.25 to 1 µM.

Turning to `Fc1ccc(-c2[nH]c3c(F)cc(F)cc3c2C2CC(CNC3COC3)C2)cc1` (centres unmarked) [Compound 380], the IC50 is 0.25 to 1 µM. Then `CN1CCC(NCC2CC(c3c(-c4ccc(F)cc4)[nH]c4c(F)cc(F)cc34)C2)C1=O` (centres unmarked) [Compound 381], with 0.25 to 1 µM. In the case of `O=C1CCC(NCC2CC(c3c(-c4ccc(F)cc4)[nH]c4c(F)cc(F)cc34)C2)C(=O)N1` (centres unmarked) [Compound 382], the IC50 lay in the range of 0.25 to 1 µM. For `C[C@@H](O)CNCC1CC(c2c(-c3ccc(F)cc3)[nH]c3c(F)cc(F)cc23)C1` (some centres unmarked) [Compound 383] the value was 0.25 to 1 µM. Then `NC12CC(NCC3CC(c4c(-c5ccc(F)cc5)[nH]c5c(F)cc(F)cc45)C3)(C1)C2` (centres unmarked) [Compound 384], with 0.25 to 1 µM. Then `OCC(O)CNCC1CC(c2c(-c3ccc(F)cc3)[nH]c3c(F)cc(F)cc23)C1` (centres unmarked) [Compound 385], with 0.25 to 1 µM; and `O=C1NCCC1NCC1CC(c2c(-c3ccc(F)cc3)[nH]c3c(F)cc(F)cc23)C1` (centres unmarked) [Compound 386], with 0.25 to 1 µM; and `O[C@H]1C[C@H](NCC2CC(c3c(-c4ccc(F)cc4)[nH]c4c(F)cc(F)cc34)C2)C1` (some centres unmarked) [Compound 387], with 0.25 to 1 µM. On to `NCCNCC1CC(c2c(-c3ccc(F)cc3)[nH]c3c(F)cc(F)cc23)C1` (centres unmarked) [Compound 388], for which the IC50 fell in the range of 0.25 to 1 µM. Regarding `C[C@@H](CO)NCC1CC(c2c(-c3ccc(F)cc3)[nH]c3c(F)cc(F)cc23)C1` (some centres unmarked) [Compound 389], the IC50 is more than 1 µM. Turning to `OCC1(NCC2CC(c3c(-c4ccc(F)cc4)[nH]c4c(F)cc(F)cc34)C2)COC1` (centres unmarked) [Compound 390], the IC50 was more than 1 µM. `Fc1ccc(-c2[nH]c3c(F)cc(F)cc3c2C2CC(CN[C@@H]3CCOC3)C2)cc1` (some centres unmarked) [Compound 391]: the IC50 was more than 1 µM. For `C[C@H](O)[C@H](CO)NCC1CC(c2c(-c3ccc(F)cc3)[nH]c3c(F)cc(F)cc23)C1` (some centres unmarked) [Compound 392], the IC50 was more than 1 µM. For `OCCCNCC1CC(c2c(-c3ccc(F)cc3)[nH]c3c(F)cc(F)cc23)C1` (centres unmarked) [Compound 393] the value was more than 1 µM. Then `C[C@H](CO)NCC1CC(c2c(-c3ccc(F)cc3)[nH]c3c(F)cc(F)cc23)C1` (some centres unmarked) [Compound 394], with more than 1 µM; and `CC[C@@H](CO)NCC1CC(c2c(-c3ccc(F)cc3)[nH]c3c(F)cc(F)cc23)C1` (some centres unmarked) [Compound 395], with more than 1 µM.
